Measurements: US8748412B2, “Phenylalanine derivatives and their use as non-peptide GLP-1 receptor modulators” (Argusina Bioscience Inc., priority 2011, dated 2014)

Biological target: T1, human GLP1R (Homo sapiens, UniProt P43220)
T1 construct: expressed in transfected cells; host or cells: CHO cells (ATCC), transient transfection with pCMV-human GLP1R
Test: Human GLP-1 receptor transfected cell assay (MRE/CRE-luciferase reporter gene, agonist activity)
Assay type: cell-based
Conditions: 6 h; concentration 1 μM; read-out: Activity (agonist), percentage of the activity of the control
Protocol: The glucagon-like peptide I receptor (GLP1R) is a class B Gs-coupled membrane receptor, an agonist of which activates adenylate cyclase (AC) and elevates intracellular cAMP level. In turn, the high content of secondary messengers can activate the cAMP response element binding protein (CREB), which can translocate into nucleus to activate gene transcription.
A reporter gene based screening assay was established to measure the effect of a compound on GLP1R. In this assay, a compound was incubated with CHO cells transiently transfected with a human GLP1R plasmid and a multiple response element (MRE)/cAMP response element (CRE)-driven luciferase reporter plasmid. Once luciferase was induced by the compound, its specific substrate can be activated to produce light signal for measurement.
Materials used in this assay included: (i) cell line: Chinese hamster ovary (CHO) cells (ATCC); (ii) fetal bovine serum (FBS) (Biochrom Co.); (iii) culture medium: RPMI1640 (Invitrogen Co.) supplemented with 10% FBS; (iv) LIPOFECTAMINE™ 2000 Reagent (Invitrogen Co.); (v) plasmids: pCMV-human GLP1R and pGL3-1905 reporter plasmid; (vi) GLP1 (7-36 amide) peptide (Sigma Co.); and (vii) BRIGHT-GLO™ Luciferase Assay System (Promega Co.).
Instruments used in this assay included: (i) Form a carbon dioxide incubator (Thermo Form a Co.); and (ii) Flexstation 3 (Molecular Device Co.).
Before transfection, CHO cells were plated into a 6-well culture plate at 800,000/2 mL/well, and cultured at 37° C. in 5% CO2 overnight. On the transfection day, cells were transfected with receptor plasmid and reporter plasmid using LIPOFECTAMINE™ 2000 reagent. After 6-hour transfection, cells were digested and seeded into 96-well plates at 20,000/100 μL/well. After 14-16 hour incubation, transfected cells were washed with 100 μL serum-free RPMII 640 medium first, and then added 50 μL of the culture medium. The GLP-1 standard and test compounds were respectively diluted to a series of concentrations, which were then added into the above 96-well culture plate at 50 μL/well. The cells were incubated at 37° C. in 5% CO2 for 6 hrs. The activity of luciferase was detected using BRIGHT-GLO™ Luciferase Analytic System, and the reading was performed with a Flexstation3 plate reader machine.

T1 sequence (P43220 24-463): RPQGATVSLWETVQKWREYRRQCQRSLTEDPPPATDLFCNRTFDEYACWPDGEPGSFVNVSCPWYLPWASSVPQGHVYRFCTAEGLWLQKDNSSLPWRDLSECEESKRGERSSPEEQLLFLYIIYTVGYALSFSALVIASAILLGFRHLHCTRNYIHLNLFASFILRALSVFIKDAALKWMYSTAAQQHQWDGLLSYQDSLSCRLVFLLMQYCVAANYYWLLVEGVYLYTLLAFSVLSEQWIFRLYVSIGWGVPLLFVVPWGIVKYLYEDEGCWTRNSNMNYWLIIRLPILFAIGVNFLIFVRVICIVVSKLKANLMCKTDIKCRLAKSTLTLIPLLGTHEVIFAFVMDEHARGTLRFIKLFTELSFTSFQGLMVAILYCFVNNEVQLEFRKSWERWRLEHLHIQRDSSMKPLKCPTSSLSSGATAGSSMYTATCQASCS

Row | activation at 1 µM [%] | SMILES
1 | > 60 | CC(C)(C)OC(=O)Nc1ccc(-c2nc(-c3ccc(CC(NC(=O)N4CCN(c5ccc(Cl)cc5)CC4)C(=O)O)cc3F)no2)cc1 (stereo not shown) [Compound 4K]
2 | 40 to 60 | CC(C)(C)OC(=O)Nc1ccc(-c2nc(-c3ccc(CC(NC(=O)Nc4cc(-c5ccc(F)cc5)on4)C(=O)O)cc3F)no2)cc1 (stereo not shown) [Compound 4S]
3 | 40 to 60 | Cc1ccc(-c2ccc(NC(=O)NC(Cc3ccc(-c4noc(-c5ccc(NC(=O)OC(C)(C)C)cc5)n4)c(F)c3)C(=O)O)nc2)cc1 (stereo not shown) [Compound 4T]
4 | > 60 | CC(C)(C)OC(=O)Nc1ccc(-c2nc(-c3ccc(CC(NC(=O)Cc4ccc(-c5ccc(C(F)(F)F)cc5)cc4)C(=O)O)cc3F)no2)cc1 (stereo not shown) [Compound 5I]
5 | > 60 | Cc1ccc(-c2cccc(C(=O)NC(Cc3ccc(-c4noc(-c5ccc(NC(=O)OC(C)(C)C)cc5)n4)nc3)C(=O)O)c2)cc1 (stereo not shown) [Compound 5K]
6 | > 60 | Cc1ccc(-c2ccc(C(=O)NC(Cc3ccc(-c4noc(-c5ccc(NC(=O)OC(C)(C)C)cc5)n4)c(F)c3F)C(=O)O)o2)cc1F (stereo not shown) [Compound 5M]
7 | > 60 | Cc1ccc(-c2ccc(C(=O)NC(Cc3ccc(-c4ccc(-c5ccc(NC(=O)OC(C)(C)C)cc5)s4)c(F)c3)C(=O)O)o2)cc1 (stereo not shown) [Compound 5N]

Same assay, conditions: 6 h; concentration 3 μM; read-out: Activity (agonist), percentage of the activity of the control

Row | activation at 3 µM [%] | SMILES
8 | 20 to 40 | Cc1cccnc1N1CCCN(C(=O)NC(Cc2ccc(-c3noc(-c4ccc(NC(=O)OC(C)(C)C)cc4)n3)c(F)c2)C(=O)O)CC1 (stereo not shown) [Compound 4R]
9 | 40 to 60 | CC(C)(C)OC(=O)Nc1ccc(-c2nc(-c3ccc(CC(NC(=O)Nc4ccc(C#N)cc4)C(=O)O)cc3F)no2)cc1 (stereo not shown) [Compound 4U]
10 | 40 to 60 | CC(C)(C)OC(=O)Nc1ccc(-c2nc(-c3ccc(CC(NC(=O)Nc4ccc(C(C)(C)C)cc4)C(=O)O)cc3F)no2)cc1 (stereo not shown) [Compound 4V]
11 | 20 to 40 | CC(C)(C)OC(=O)Nc1ccc(-c2nc(-c3ccc(CC(NC(=O)Nc4ccc(N5CCCCC5)cc4)C(=O)O)cc3F)no2)cc1 (stereo not shown) [Compound 4Y]
12 | 40 to 60 | Cc1ccc(-c2cccc(NC(=O)NC(Cc3ccc(-c4noc(-c5ccc(NC(=O)OC(C)(C)C)cc5)n4)c(F)c3)C(=O)O)c2)cc1 (stereo not shown) [Compound 5A]
13 | 40 to 60 | Cn1nc(C(C)(C)C)cc1NC(=O)NC(Cc1ccc(-c2noc(-c3ccc(NC(=O)OC(C)(C)C)cc3)n2)c(F)c1)C(=O)O (stereo not shown) [Compound 5B]
14 | > 60 | CC(C)(C)OC(=O)Nc1ccc(-c2nc(-c3ccc(CC(NC(=O)Nc4ccc(-c5ccccc5F)cn4)C(=O)O)cc3F)no2)cc1 (stereo not shown) [Compound 5C]
15 | > 60 | CC(C)(C)OC(=O)Nc1ccc(-c2nc(-c3ccc(CC(NC(=O)N4CCC(c5ccccc5)C4)C(=O)O)cc3F)no2)cc1 (stereo not shown) [Compound 5D]

Same assay, conditions: 6 h; concentration 3.16 μM; read-out: Activity (agonist), percentage of the activity of the control

Row | activation at 3.16 µM [%] | SMILES
16 | 40 to 60 | COc1ccc(N2CCN(C(=O)NC(Cc3ccc(-c4noc(-c5ccc(NC(=O)OC(C)(C)C)cc5)n4)c(F)c3)C(=O)O)CC2)cc1 (stereo not shown) [Compound 4J]
17 | 40 to 60 | CC(C)(C)OC(=O)Nc1ccc(-c2nc(-c3ccc(CC(NC(=O)Nc4ccnc(Cl)c4)C(=O)O)cc3F)no2)cc1 (stereo not shown) [Compound 4L]
18 | > 60 | Cc1ccc(NC(=O)NC(Cc2ccc(-c3noc(-c4ccc(NC(=O)OC(C)(C)C)cc4)n3)c(F)c2)C(=O)O)cc1 (stereo not shown) [Compound 4M]
19 | 20 to 40 | CC(C)(C)OC(=O)Nc1ccc(-c2nc(-c3ccc(CC(NC(=O)Nc4ccc(Br)nc4)C(=O)O)cc3F)no2)cc1 (stereo not shown) [Compound 4N]
20 | > 60 | CC(C)(C)OC(=O)Nc1ccc(-c2nc(-c3ccc(CC(NC(=O)N4CCCN(c5ccc(F)cn5)CC4)C(=O)O)cc3F)no2)cc1 (stereo not shown) [Compound 4Q]
21 | > 60 | Cc1ccc(-c2ccc(C(=O)NC(Cc3ccc(-c4noc(-c5ccc(NC(=O)OC(C)(C)C)cc5)n4)cc3C(F)(F)F)C(=O)O)o2)cc1 (stereo not shown) [Compound 5J]
22 | > 60 | CC(C)(C)OC(=O)Nc1ccc(-c2ccc(-c3ccc(CC(NC(=O)c4ccc(-c5ccc(F)cc5)o4)C(=O)O)cc3F)s2)cc1 (stereo not shown) [Compound 5O]
23 | 40 to 60 | CC(C)(C)OC(=O)Nc1ccc(/C=C/c2ccc(CC(NC(=O)c3ccc(NC(=O)OC(C)(C)C)cc3)C(=O)O)cc2F)cc1 (stereo not shown) [Compound 5R]
24 | 40 to 60 | CC(C)c1ccc(-c2ccc(C(=O)N[C@H](Cc3ccc(-c4noc(-c5ccc(NC(=O)OC(C)(C)C)cc5)n4)c(F)c3)C(=O)O)o2)cc1 [Compound 6B]

Same assay, conditions: 6 h; concentration 5 μM; read-out: Activity (agonist), percentage of the activity of the control

Row | activation at 5 µM [%] | SMILES
25 | > 60 | Cc1ccc(N2CCN(CC(=O)NC(Cc3ccc(-c4noc(-c5ccc(NC(=O)OC(C)(C)C)cc5)n4)c(F)c3)C(=O)O)CC2)cc1 (stereo not shown) [Compound 5H]

Same assay, conditions: 6 h; concentration 10 μM; read-out: Activity (agonist), percentage of the activity of the control

Row | activation at 10 µM [%] | SMILES
26 | > 60 | Cc1ccc(-c2ccc(NC(=O)NC(Cc3ccc(-c4noc(-c5ccc(NC(=O)OC(C)(C)C)cc5)n4)c(F)c3)C(=O)O)cn2)cc1 (stereo not shown) [Compound 4O]
27 | > 60 | CC(C)(C)OC(=O)Nc1ccc(-c2nc(-c3ccc(CC(NC(=O)N4CCCN(c5ccc(C#N)cc5)CC4)C(=O)O)cc3F)no2)cc1 (stereo not shown) [Compound 4P]
28 | 40 to 60 | CC(C)c1ccc(NC(=O)NC(Cc2ccc(-c3noc(-c4ccc(NC(=O)OC(C)(C)C)cc4)n3)c(F)c2)C(=O)O)cc1 (stereo not shown) [Compound 4W]
29 | > 60 | CC(C)(C)OC(=O)Nc1ccc(-c2nc(-c3ccc(CC(NC(=O)Nc4ccc(-c5ccc(F)cc5)cn4)C(=O)O)cc3F)no2)cc1 (stereo not shown) [Compound 4X]
30 | 40 to 60 | Cc1ccc(-c2ccc(NC(=O)NC(Cc3ccc(-c4noc(-c5ccc(NC(=O)OC(C)(C)C)cc5)n4)c(F)c3)C(=O)O)nc2)cc1Cl (stereo not shown) [Compound 4Z]
31 | > 60 | Cc1ccc(-c2ccc(C(=O)NC(Cc3ccc(C#Cc4ccc(NC(=O)OC(C)(C)C)cc4)c(F)c3)C(=O)O)o2)cc1 (stereo not shown) [Compound 5E]
32 | > 60 | Cc1ccc(-c2ccc(NC(=O)NC(Cc3ccc(-c4noc(-c5ccc(NC(=O)OC(C)(C)C)cc5)n4)c(F)c3)C(=O)O)nc2)cc1F (stereo not shown) [Compound 5F]
33 | > 60 | CC(=O)N(Cc1ccc(-c2ccc(C)cc2)o1)C(Cc1ccc(-c2noc(-c3ccc(NC(=O)OC(C)(C)C)cc3)n2)c(F)c1)C(=O)O (stereo not shown) [Compound 5G]
34 | > 60 | Cc1ccc(-c2ccc(C(=O)NC(Cc3cc(F)c(-c4noc(-c5ccc(NC(=O)OC(C)(C)C)cc5)n4)c(F)c3)C(=O)O)o2)cc1 (stereo not shown) [Compound 5L]
35 | > 60 | Cc1ccc(-c2ccc(C(=O)N[C@H](Cc3ccc(-c4cc(-c5ccc(NC(=O)OC(C)C)cc5)[nH]n4)c(F)c3)C(=O)O)o2)cc1 [Compound 5P]
36 | > 60 | Cc1ccc(-c2ccc(C(=O)N[C@H](Cc3ccc(-c4cn(-c5ccc(NC(=O)OC(C)C)cc5)nn4)c(F)c3)C(=O)O)o2)cc1 [Compound 5Q]
37 | > 60 | Cc1ccc(-c2ccc(C(=O)NC(Cc3ccc(NC(=O)c4cccc(Br)c4)c(F)c3)C(=O)O)o2)cc1 (stereo not shown) [Compound 5S]
38 | > 60 | Cc1ccc(-c2ccc(C(=O)N[C@H](Cc3ccc(/C=C/c4ccc(NC(=O)OC(C)(C)C)cc4)c(F)c3)C(=O)O)o2)cc1 [Compound 5T]
39 | > 60 | Cc1ccc(-c2cccc(C(=O)NC(Cc3ccc(-c4noc(C(=O)N5CCC(C)CC5)n4)c(F)c3)C(=O)O)c2)cc1 (stereo not shown) [Compound 5U]
40 | > 60 | COc1cc2c(cc1OC(=O)c1ccc(NC(=O)OC(C)(C)C)cc1)CN(S(=O)(=O)c1ccc(C)cc1)C(C(=O)O)C2 (stereo not shown) [Compound 5V]
41 | > 60 | COc1cc2c(cc1OC(=O)c1ccc(NC(=O)OC(C)(C)C)cc1)CN(C(=O)c1ccc(-c3ccc(C)cc3)o1)C(C(=O)O)C2 (stereo not shown) [Compound 5W]
42 | > 60 | CC(C)(C)OC(=O)Nc1ccc(C(=O)Oc2ccc3c(c2)CN(C(=O)c2ccc(NC(=O)OC(C)(C)C)cc2)C(C(=O)O)C3)cc1 (stereo not shown) [Compound 5X]
43 | > 60 | Cc1ccc(S(=O)(=O)N2Cc3cc(OC(=O)c4ccc(NC(=O)OC(C)(C)C)cc4)ccc3CC2C(=O)O)cc1F (stereo not shown) [Compound 5Y]
44 | > 60 | Cc1ccc(-c2ccc(C(=O)NC3(C(=O)O)Cc4ccc(-c5noc(-c6ccc(NC(=O)OC(C)(C)C)cc6)n5)cc4C3)o2)cc1 (stereo not shown) [Compound 5Z]
45 | > 60 | CC(C)(C)OC(=O)Nc1ccc(-c2nc(-c3ccc(C[C@@H](NC(=O)c4cccc(-c5ccc(Cl)cc5)c4)C(=O)O)cc3F)no2)cc1 [Compound 6A]
46 | > 60 | CC(C)(C)OC(=O)Nc1ccc(-c2nc(-c3ccc(C[C@@H](NC(=O)c4cccc(-c5ccc(Cl)cc5F)c4)C(=O)O)cc3F)no2)cc1 [Compound 6C]
